The subject of assay [1] is Beet Armyworm (Spodoptera exigua). Description: Bioassay on Beet Armyworm (BAW), 128-well diet tray assay. It is filed as in vivo. Conditions: for mortality at 50 µg/cm2: Spodoptera exigua, 168 h, 50 μg/cm^2 on artificial diet, second instar larvae, five to seven days, read-out: BAW % Control (or Mortality) rating. Here is the method:
(§1) Certain molecules disclosed in this document were tested against BAW and CL using procedures described in the following examples. In the reporting of the results, the “BAW & CL Rating Table” was used (See Table Section).
Bioassays on BAW were conducted using a 128-well diet tray assay. […] Trays were covered with a clear self-adhesive cover, vented to allow gas exchange, and held at 25° C., 14:10 light-dark for five to seven days. Percent mortality was recorded for the larvae in each well; activity in the eight wells was then averaged. The results are indicated in the table entitled “Table ABC: Biological Results” (See Table Section).

The test system of assay [2] is Cabbage Looper (Trichoplusia ni). Description: Bioassay on Cabbage Looper (CL), 128-well diet tray assay. It is filed as in vivo. Particulars: 168 h, 50 μg/cm^2 on artificial diet, second instar larvae, five to seven days, read-out: CL % Control (or Mortality) rating. Here is the method: as §1
Bioassays on CL were conducted using a 128-well diet tray assay. One to five second instar CL larvae were placed in each well (3 mL) of the diet tray that had been previously filled with 1 mL of artificial diet to which 50 μg/cm^2 of the test molecule (dissolved in 50 μL of 90:10 acetone-water mixture) had been applied (to each of eight wells) and then allowed to dry. Trays were covered with a clear self-adhesive cover, vented to allow gas exchange, and held at 25° C., 14:10 light-dark for five to seven days. Percent mortality was recorded for the larvae in each well; activity in the eight wells was then averaged. The results are indicated in the table entitled “Table ABC: Biological Results” (See Table Section).

As a reminder, the mortality is the share of the test organisms that died.

Regarding `O=C(NNc1ccccc1F)c1ccc(/C(F)=C/C(c2cc(Cl)c(Cl)c(Cl)c2)C(F)(F)F)cc1C(F)(F)F` (centres unmarked) [F28, (Z)—N′-(2-fluorophenyl)-4-(1,4,4,4-tetrafluoro-3-(3,4,5-trichlorophenyl)but-1-en-1-yl)-2(trifluoromethyl)benzohydrazide], the mortality at 50 µg/cm2 in assay [1] and in assay [2] was 50 to 100% throughout.

For `CN(NC(=O)c1ccc(/C(F)=C/C(c2cc(Cl)c(Cl)c(Cl)c2)C(F)(F)F)cc1C(F)(F)F)c1ncc(N)cn1` (centres unmarked) [F166, (Z)—N′-(5-Aminopyrimidin-2-yl)-N′-methyl-4-(1,4,4,4-tetrafluoro-3-(3,4,5-trichlorophenyl)but-1-en-1-yl)-2-(trifluoromethyl)benzohydrazide], the mortality at 50 µg/cm2 in assay [1] and in assay [2] was 50 to 100% in each case.

As for `CN(NC(=O)c1ccc(/C(F)=C/C(c2ccc(Br)c(Cl)c2)C(F)(F)F)cc1C(F)(F)F)c1ncccn1` (centres unmarked) [F125, (Z)-4-(3-(4-Bromo-3-chlorophenyl)-1,4,4,4-tetrafluorobut-1-en-1-yl)-N′-methyl-N′-(pyrimidin-2-yl)-2-(trifluoromethyl)benzohydrazide], the mortality at 50 µg/cm2 in assay [1] and in assay [2] was 50 to 100% throughout.

As to `Cc1cc(/C(F)=C/C(c2cc(Cl)c(Cl)c(Cl)c2)C(F)(F)F)ccc1C(=O)NNc1ncccn1` (centres unmarked) [F37, (Z)-2-Methyl-N′-(pyrimidin-2-yl)-4-(1,4,4,4-tetrafluoro-3-(3,4,5-trichlorophenyl)but-1-en-1-yl)benzohydrazide], the “BAW (Table CD-1)” value in assay [1] (0.05 μg/cm^2) amounted to 0; in assay [1] (5.0 μg/cm^2) it was 100; in assay [1] (50 μg/cm^2) it was 100. Besides, the mortality at 50 µg/cm2 in assay [1] and in assay [2] was 50 to 100% each time.

In the case of `CN(NC(=O)c1ccc(/C(F)=C/C(c2cc(Cl)cc(OC(F)(F)F)c2)C(F)(F)F)cc1C(F)(F)F)c1ccccn1` (centres unmarked) [F61, (Z)-4-(3-(3-Chloro-5-(trifluoromethoxy)phenyl)-1,4,4,4-tetrafluorobut-1-en-1-yl)-N′-methyl-N′-(pyridin-2-yl)-2-(trifluoromethyl)benzohydrazide], the mortality at 50 µg/cm2 in assay [1] and in assay [2] was 50 to 100% in each case.

Turning to `C=Cc1cc(C(/C=C(\F)c2ccc(C(=O)NNc3ncccn3)c(C(F)(F)F)c2)C(F)(F)F)cc(Cl)c1Cl` (centres unmarked) [F168, (Z)-4-(3-(3,4-dichloro-5-vinylphenyl)-1,4,4,4-tetrafluorobut-1-en-1-yl)-N′-(pyrimidin-2-yl)-2-(trifluoromethyl)benzohydrazide], the mortality at 50 µg/cm2 in assay [1] and in assay [2] was 50 to 100% in each case.

As for `CN(CC1CC1)NC(=O)c1ccc(/C(F)=C/C(c2cc(Cl)c(Cl)c(Cl)c2)C(F)(F)F)cc1C(F)(F)F` (centres unmarked) [F159, (Z)—N′-(Cyclopropylmethyl)-N′-methyl-4-(1,4,4,4-tetrafluoro-3-(3,4,5-trichlorophenyl)but-1-en-1-yl)-2-(trifluoromethyl)benzohydrazide], the mortality at 50 µg/cm2 in assay [1] and in assay [2] was 50 to 100% throughout.

In the case of `O=C(NNc1cccc(Br)n1)c1ccc(/C(F)=C/C(c2cc(Cl)c(Cl)c(Cl)c2)C(F)(F)F)cc1C(F)(F)F` (centres unmarked) [F165, (Z)—N′-(6-Bromopyridin-2-yl)-4-(1,4,4,4-tetrafluoro-3-(3,4,5-trichlorophenyl)but-1-en-1-yl)-2-(trifluoromethyl)benzohydrazide], the mortality at 50 µg/cm2 in assay [1] and in assay [2] was 50 to 100% in each case.

Consider `O=C(NNc1c(Cl)cnc(Cl)c1Cl)c1ccc(/C(F)=C/C(c2cc(Cl)c(Cl)c(Cl)c2)C(F)(F)F)cc1C(F)(F)F` (centres unmarked) [F30, (Z)-4-(1,4,4,4-Tetrafluoro-3-(3,4,5-trichlorophenyl)but-1-en-1-yl)-N′-(2,3,5-trichloro-4-pyridin-4-yl)-2-(trifluoromethyl)benzohydrazide], for which the mortality at 50 µg/cm2 in assay [1] and in assay [2] was 50 to 100% each time.

In the case of `O=C(NNc1cccc(F)n1)c1ccc(/C(F)=C/C(c2cc(Cl)c(Cl)c(Cl)c2)C(F)(F)F)cc1C(F)(F)F` (centres unmarked) [F34, (Z)—N′-(6-Fluoropyridin-2-yl)-4-(1,4,4,4-tetrafluoro-3-(3,4,5-trichlorophenyl)but-1-en-1-yl)-2-(trifluoromethyl)benzohydrazide], the mortality at 50 µg/cm2 in assay [1] and in assay [2] was 50 to 100% in each case.

`CN(NC(=O)c1ccc(/C(F)=C/C(c2cc(Cl)c(Cl)c(Cl)c2)C(F)(F)F)cc1C(F)(F)F)c1ccccn1` (centres unmarked) [F59, (Z)—N′-Methyl-N′-(pyridin-2-yl)-4-(1,4,4,4-tetrafluoro-3-(3,4,5-trichloro-phenyl)but-1-en-1-yl)-2-(trifluoromethyl)benzohydrazide]: the mortality at 50 µg/cm2 in assay [1] and in assay [2] was 50 to 100% each time.

As to `NN(CC1CC1)C(=O)c1ccc(/C(F)=C/C(c2cc(Cl)c(Cl)c(Cl)c2)C(F)(F)F)cc1C(F)(F)F` (centres unmarked) [F98, (Z)—N-(Cyclopropylmethyl)-4-(1,4,4,4-tetrafluoro-3-(3,4,5-trichlorophenyl)but-1-en-1-yl)-2-(trifluoromethyl)benzohydrazide], the mortality at 50 µg/cm2 in assay [1] and in assay [2] was 50 to 100% each time.

In the case of `CSc1nccc(NNC(=O)c2ccc(/C(F)=C/C(c3cc(Cl)c(Cl)c(Cl)c3)C(F)(F)F)cc2C(F)(F)F)n1` (centres unmarked) [F5, (Z)—N′-(2-(Methylthio)pyrimidin-4-yl)-4-(1,4,4,4-tetrafluoro-3-(3,4,5-trichlorophenyl)but-1-en-1-yl)-2-(trifluoromethyl)benzohydrazide], the mortality at 50 µg/cm2 in assay [1] and in assay [2] was 50 to 100% in each case.

On to `O=C(/N=N/c1ncccn1)c1ccc(/C(F)=C/C(c2cc(Cl)c(Cl)c(Cl)c2)C(F)(F)F)cc1C(F)(F)F` (centres unmarked) [F192, ((E)-pyrimidin-2-yldiazenyl)(4-((Z)-1,4,4,4-tetrafluoro-3-(3,4,5-trichlorophenyl)but-1-en-1-yl)-2-(trifluoromethyl)phenyl)methanone], for which the mortality at 50 µg/cm2 in assay [1] and in assay [2] was 50 to 100% each time.

Turning to `O=C(NNc1ncccn1)c1ccc(/C(F)=C/[C@@H](c2cc(Cl)c(Cl)c(Cl)c2)C(F)(F)F)cc1C(F)(F)F` (single isomer, unassigned) [F94], the “BAW (Table CD-2)” value in assay [1] (0.005 μg/cm^2) is reported as 0; in assay [1] (0.05 μg/cm^2), 0; in assay [1] (0.5 μg/cm^2) it was 7; in assay [1] (5.0 μg/cm^2) it was 100. The mortality at 50 µg/cm2 in assay [1] and in assay [2] was 50 to 100% in each case.

Regarding `O=C(NNc1ncccn1)c1ccc(/C(F)=C/C(c2ccc(F)c(C(F)(F)F)c2)C(F)(F)F)cc1C(F)(F)F` (centres unmarked) [F32, (Z)—N′-(Pyrimidin-2-yl)-4-(1,4,4,4-tetrafluoro-3-(4-fluoro-3-(trifluoromethyl)phenyl)but-1-en-1-yl)-2-(trifluoromethyl)benzohydrazide], the mortality at 50 µg/cm2 in assay [1] and in assay [2] was 50 to 100% in each case.

Turning to `O=C(NNc1ncccn1)c1ccc(/C(F)=C/C(c2cc(Cl)c(Cl)c(Br)c2)C(F)(F)F)cc1C(F)(F)F` (centres unmarked) [F96, (Z)-4-(3-(3-Bromo-4,5-dichlorophenyl)-1,4,4,4-tetrafluorobut-1-en-1-yl)-N′-(pyrimidin-2-yl)-2-(trifluoromethyl)benzohydrazide], the mortality at 50 µg/cm2 in assay [1] and in assay [2] was 50 to 100% throughout.

For `CN(CCCC(F)(F)F)NC(=O)c1ccc(/C(F)=C/C(c2cc(Cl)c(Cl)c(Cl)c2)C(F)(F)F)cc1C(F)(F)F` (centres unmarked) [F155, (Z)—N′-Methyl-4-(1,4,4,4-tetrafluoro-3-(3,4,5-trichlorophenyl)but-1-en-1-yl)-N′-(4,4,4-trifluorobutyl)-2-(trifluoromethyl)benzohydrazide], the mortality at 50 µg/cm2 in assay [1] and in assay [2] was 50 to 100% each time.

With `Nc1ccccc1NNC(=O)c1ccc(/C(F)=C/C(c2cc(Cl)c(Cl)c(Cl)c2)C(F)(F)F)cc1C(F)(F)F` (centres unmarked) [F156, (Z)—N′-(2-aminophenyl)-4-(1,4,4,4-tetrafluoro-3-(3,4,5-trichlorophenyl)but-1-en-1-yl)-2-(trifluoromethyl)benzohydrazide], the mortality at 50 µg/cm2 in assay [1] and in assay [2] was 50 to 100% in each case.

On to `CN(NC(=O)c1ccc(/C(F)=C/C(c2cc(Cl)c(Cl)c(Cl)c2)C(F)(F)F)cc1C(F)(F)F)c1nccc(C(F)(F)F)n1` (centres unmarked) [F91, (Z)—N′-methyl-4-(1,4,4,4-tetrafluoro-3-(3,4,5-trichlorophenyl)but-1-en-1-yl)-2-(trifluoromethyl)-N′-(4-(trifluoromethyl)pyrimidin-2-yl)benzohydrazide], for which the mortality at 50 µg/cm2 in assay [1] and in assay [2] was 50 to 100% each time.

In the case of `O=C(NNc1ncccn1)c1ccc(/C(F)=C/C(c2cc(Cl)c(Cl)c(Cl)c2)C(F)(F)F)cc1` (centres unmarked) [1A, (Z)—N′-(Pyrimidin-2-yl)-4-(1,4,4,4-tetrafluoro-3-(3,4,5-trichlorophenyl)but-1-en-1-yl)benzohydrazide], the “BAW (Table CD-1)” value in assay [1] (0.05 μg/cm^2) is listed as 0; in assay [1] (5.0 μg/cm^2), 25; in assay [1] (50 μg/cm^2), 100.

(Values after patent US10638756B2, “Molecules having pesticidal utility, and intermediates, compositions, and processes, related thereto” (Dow AgroSciences LLC, priority 2017, dated 2020).)
